From patent US12624018B1, “Inhibitors of RIPK2 and medical uses thereof” (Odyssey Therapeutics, Inc., priority 2022, dated 2026) come the findings set out here.

This test addresses T1, RIPK2 enzyme (Homo sapiens, UniProt O43353).
T1 construct: purchased Carna 09-128
As to the kind of experiment: RIPK2 inhibition (ADP-Glo Kinase Assay). Type of test: biochemical. The following applies: RIPK2 5 nM, ATP 150 μM, MBP substrate, read-out: RIPK2 IC50. In short, it runs like this: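 Swine MBP substrate; compound and 5 nM RIPK2 first mixed for 30 min at room temperature; buffer pH 7.5 HEPES 50 mM with 10 mM MgCl2, 2 mM DTT, 1 mM EGTA, Brij-35, BSA.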

T1 sequence (O43353 1-299 limits assumed): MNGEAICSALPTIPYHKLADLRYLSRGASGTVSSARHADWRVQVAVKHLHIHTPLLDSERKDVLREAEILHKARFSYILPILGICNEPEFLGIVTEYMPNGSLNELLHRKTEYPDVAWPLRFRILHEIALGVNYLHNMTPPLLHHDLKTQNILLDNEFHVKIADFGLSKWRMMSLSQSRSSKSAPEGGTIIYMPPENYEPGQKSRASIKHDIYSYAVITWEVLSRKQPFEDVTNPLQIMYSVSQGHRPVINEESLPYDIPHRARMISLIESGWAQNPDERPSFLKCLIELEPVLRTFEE

By IC50 is commonly meant the midpoint of a concentration-inhibition curve. Consider `Cc1cc(CC(=O)Nc2cnn(C(C)(C)C)c2)c(F)cc1Oc1ncnc2cc(F)c(C(N)=O)cc12` [Compound 438, 4-(4-(2-((1-(tert-butyl)-1H-pyrazol-4-yl)amino)-2-oxoethyl)-5-fluoro-2-methylphenoxy)-7-fluoroquinazoline-6-carboxamide], for which the IC50 was determined as 3.5 nM.

In the case of `COc1cc2ncnc(Oc3cc(F)c(CC(=O)Nc4cnn(C(C)(C)C)c4)cc3C)c2cc1C(N)=O` [Compound 439, 4-(4-(2-((1-(tert-butyl)-1H-pyrazol-4-yl)amino)-2-oxoethyl)-5-fluoro-2-methylphenoxy)-7-methoxyquinazoline-6-carboxamide], the IC50 was less than 2.5 nM.

In the case of `CNC(=O)c1cc2c(Oc3cc(F)c(CC(=O)Nc4cnn(C(C)(C)C)c4)cc3C)ncnc2cc1OC` [Compound 440, 4-(4-(2-((1-(tert-butyl)-1H-pyrazol-4-yl)amino)-2-oxoethyl)-5-fluoro-2-methylphenoxy)-7-methoxy-N-methylquinazoline-6-carboxamide], the IC50 is less than 2.5 nM.

For the molecule `Cc1c(Oc2ccnc3ccc(C(O)CO)cc23)ccc(CC(=O)Nc2cnn(C(C)(C)C)c2)c1F` (centres unmarked) [Compound 444, N-(1-(tert-butyl)-1H-pyrazol-4-yl)-2-(4-((6-(1,2-dihydroxyethyl)quinolin-4-yl)oxy)-2-fluoro-3-methylphenyl)acetamide], the IC50 was less than 2.5 nM.

As to `Cc1cc(CC(=O)Nc2cnn(C(C)(C)C)c2)cc(C)c1Oc1ccnc2ccc(S(C)(=O)=O)cc12` [Compound 445, N-(1-(tert-butyl)-1H-pyrazol-4-yl)-2-(3,5-dimethyl-4-((6-(methylsulfonyl)quinolin-4-yl)oxy)phenyl)acetamide], the IC50 was less than 2.5 nM.

As for `Cc1cc(Oc2ccnc3ccc(S(C)(=O)=O)cc23)c(C)cc1CC(=O)Nc1cnn(C(C)(C)C)c1` [Compound 446, N-(1-(tert-butyl)-1H-pyrazol-4-yl)-2-(2,5-dimethyl-4-((6-(methylsulfonyl)quinolin-4-yl)oxy)phenyl)acetamide], the IC50 worked out at 21.4 nM.

As for `Cc1cc(CC(=O)Nc2cnn(C(C)(C)C)c2)cc(F)c1Oc1ncnc2ccc(C(N)=O)cc12` [Compound 447, 4-(4-(2-((1-(tert-butyl)-1H-pyrazol-4-yl)amino)-2-oxoethyl)-2-fluoro-6-methylphenoxy)quinazoline-6-carboxamide], the IC50 was less than 2.5 nM.

For the molecule `COC1CN(C(=O)c2ccc3nccc(Oc4cc(F)c(CC(=O)Nc5cnn(C(C)(C)C)c5)cc4C)c3c2)C1` [Compound 448, N-(1-(tert-butyl)-1H-pyrazol-4-yl)-2-(2-fluoro-4-((6-(3-methoxyazetidine-1-carbonyl)quinolin-4-yl)oxy)-5-methylphenyl)acetamide], the IC50 is less than 2.5 nM.

As for `Cc1cc(CC(=O)Nc2cnn(C(C)(C)C)c2)c(F)cc1Oc1ccnc2ccc(C(=O)N3CCC(N)C3)cc12` (centres unmarked) [Compound 449, 2-(4-((6-(3-aminopyrrolidine-1-carbonyl)quinolin-4-yl)oxy)-2-fluoro-5-methylphenyl)-N-(1-(tert-butyl)-1H-pyrazol-4-yl)acetamide], the IC50 is less than 2.5 nM.

For `Cc1cc(CC(=O)Nc2cnn(C(C)(C)C)c2)c(F)cc1Oc1ccnc2ccc(C(=O)N3[C@H](C)CCC[C@@H]3C)cc12` [Compound 450, N-(1-(tert-butyl)-1H-pyrazol-4-yl)-2-(4-((6-((2S,6R)-2,6-dimethylpiperidine-1-carbonyl)quinolin-4-yl)oxy)-2-fluoro-5-methylphenyl)acetamide], the IC50 was less than 2.5 nM.

Turning to `Cc1cc(CC(=O)Nc2cnn(C(C)(C)C)c2)c(F)cc1Oc1ccnc2ccc(C(=O)N3[C@H](C)COC[C@@H]3C)cc12` [Compound 451, N-(1-(tert-butyl)-1H-pyrazol-4-yl)-2-(4-((6-((3S,5R)-3,5-dimethylmorpholine-4-carbonyl)quinolin-4-yl)oxy)-2-fluoro-5-methylphenyl)acetamide], the IC50 is less than 2.5 nM.

`Cc1cc(CC(=O)Nc2cnn(C(C)(C)C)c2)c(F)cc1Oc1ccnc2ccc(C(=O)N3C[C@H]4C[C@@H]3CO4)cc12` [Compound 452, 2-(4-((6-((1R,4R)-2-oxa-5-azabicyclo[2.2.1]heptane-5-carbonyl)quinolin-4-yl)oxy)-2-fluoro-5-methylphenyl)-N-(1-(tert-butyl)-1H-pyrazol-4-yl)acetamide]: the IC50 was less than 2.5 nM.

With `Cc1cc(CC(=O)Nc2cnn(C(C)(C)C)c2)c(F)cc1Oc1ccnc2ccc(C(=O)N3C[C@H]4C[C@@H]3CN4)cc12` [Compound 453, 2-(4-((6-((1R,4R)-2,5-diazabicyclo[2.2.1]heptane-2-carbonyl)quinolin-4-yl)oxy)-2-fluoro-5-methylphenyl)-N-(1-(tert-butyl)-1H-pyrazol-4-yl)acetamide], the IC50 is less than 2.5 nM.

As for `Cc1cc(CC(=O)Nc2cnn(C(C)(C)C)c2)c(F)cc1Oc1ccnc2ccc(C(=O)N3C[C@@H]4C[C@H]3CO4)cc12` [Compound 454, 2-(4-((6-((1S,4S)-2-oxa-5-azabicyclo[2.2.1]heptane-5-carbonyl)quinolin-4-yl)oxy)-2-fluoro-5-methylphenyl)-N-(1-(tert-butyl)-1H-pyrazol-4-yl)acetamide], the IC50 is less than 2.5 nM.

As to `Cc1cc(CC(=O)Nc2cnn(C(C)(C)C)c2)c(F)cc1Oc1ccnc2ccc(C(=O)NC(C)C)cc12` [Compound 455, 4-(4-(2-((1-(tert-butyl)-1H-pyrazol-4-yl)amino)-2-oxoethyl)-5-fluoro-2-methylphenoxy)-N-isopropylquinoline-6-carboxamide], the IC50 is less than 2.5 nM.

Regarding `Cc1cc(CC(=O)Nc2cnn(C(C)(C)C)c2)c(F)cc1Oc1ccnc2ccc(C(=O)NC(C)(C)C)cc12` [Compound 456, N-(tert-butyl)-4-(4-(2-((1-(tert-butyl)-1H-pyrazol-4-yl)amino)-2-oxoethyl)-5-fluoro-2-methylphenoxy)quinoline-6-carboxamide], the IC50 was less than 2.5 nM.

On to `Cc1cc(CC(=O)Nc2cnn(C(C)(C)C)c2)c(F)cc1Oc1ccnc2ccc(C(=O)NC3CC3)cc12` [Compound 457, 4-(4-(2-((1-(tert-butyl)-1H-pyrazol-4-yl)amino)-2-oxoethyl)-5-fluoro-2-methylphenoxy)-N-cyclopropylquinoline-6-carboxamide], for which the IC50 is less than 2.5 nM.

Regarding `Cc1cc(CC(=O)Nc2cnn(C(C)(C)C)c2)c(F)cc1Oc1ccnc2ccc(C(=O)NC3(C)CC3)cc12` [Compound 458, 4-(4-(2-((1-(tert-butyl)-1H-pyrazol-4-yl)amino)-2-oxoethyl)-5-fluoro-2-methylphenoxy)-N-(1-methylcyclopropyl)quinoline-6-carboxamide], the IC50 is less than 2.5 nM.

As for `CSc1ccc2nccc(Oc3cc(F)c(CC(=O)Nc4cnn(C(C)(C)C)c4)cc3C)c2c1` [Compound 459, N-(1-(tert-butyl)-1H-pyrazol-4-yl)-2-(2-fluoro-5-methyl-4-((6-(methylthio)quinolin-4-yl)oxy)phenyl)acetamide], the IC50 is less than 2.5 nM.

For the molecule `Cc1cc(CC(=O)Nc2cnn(C(C)(C)C)c2)c(F)cc1Oc1ccnc2ccc(-c3nnccc3C)cc12` [Compound 460, N-(1-(tert-butyl)-1H-pyrazol-4-yl)-2-(2-fluoro-5-methyl-4-((6-(4-methylpyridazin-3-yl)quinolin-4-yl)oxy)phenyl)acetamide], the IC50 is less than 2.5 nM.
